The text below walks through data of ChEMBL document CHEMBL6114964, “Discovery of novel spirocyclic derivates as potent androgen receptor antagonists” (Bioorg Med Chem, 2025).

The nature of one data set: cells. It counts as functional, cell-based. The conditions noted are these: Homo sapiens, LNCaP-EnzR, 168 h.
The subject of a further data set is CWR22R. The experiment in a line: cells. It counts as functional, cell-based. The conditions noted are these: Homo sapiens, 22Rv1, 168 h.
The subject of a further data set is LNCaP. The experiment in a line: cells. Type of data set: functional, cell-based. The conditions noted are these: Homo sapiens, 168 h.
Data set [1] concerns the target T1, Androgen receptor (Homo sapiens, UniProt P10275).
T1 sequence (P10275 whole entry): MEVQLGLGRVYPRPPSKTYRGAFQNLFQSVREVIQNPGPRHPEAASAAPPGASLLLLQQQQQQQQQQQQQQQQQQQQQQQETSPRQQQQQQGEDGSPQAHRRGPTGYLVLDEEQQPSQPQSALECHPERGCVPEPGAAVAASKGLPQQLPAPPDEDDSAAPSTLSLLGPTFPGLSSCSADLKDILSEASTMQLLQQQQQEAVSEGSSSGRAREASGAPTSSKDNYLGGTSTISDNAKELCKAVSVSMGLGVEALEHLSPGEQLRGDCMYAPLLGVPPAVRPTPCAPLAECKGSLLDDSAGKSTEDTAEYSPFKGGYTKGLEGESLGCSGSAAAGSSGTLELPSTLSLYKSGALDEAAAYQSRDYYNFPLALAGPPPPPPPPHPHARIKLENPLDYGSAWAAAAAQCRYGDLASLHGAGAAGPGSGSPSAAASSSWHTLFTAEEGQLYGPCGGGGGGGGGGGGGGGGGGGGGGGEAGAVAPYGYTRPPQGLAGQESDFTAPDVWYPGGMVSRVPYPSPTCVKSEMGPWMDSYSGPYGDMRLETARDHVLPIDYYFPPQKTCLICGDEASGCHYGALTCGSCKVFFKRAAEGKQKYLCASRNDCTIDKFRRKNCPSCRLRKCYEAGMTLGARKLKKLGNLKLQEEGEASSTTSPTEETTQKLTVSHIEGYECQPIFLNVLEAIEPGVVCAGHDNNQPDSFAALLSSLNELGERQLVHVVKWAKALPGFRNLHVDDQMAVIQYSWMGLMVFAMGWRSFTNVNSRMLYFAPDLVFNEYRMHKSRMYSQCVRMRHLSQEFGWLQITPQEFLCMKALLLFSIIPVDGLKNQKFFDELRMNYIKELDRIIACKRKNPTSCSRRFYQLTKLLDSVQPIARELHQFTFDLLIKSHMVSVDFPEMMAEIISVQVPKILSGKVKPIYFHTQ
It counts as cell-based, HEK293.

For data set [2], the target named is Androgen receptor (Homo sapiens, UniProt P10275, W742L). It counts as cell-based, HEK293.
The nature of data set [3]: in vitro. The conditions noted are these: human, microsomes.
Data set [4] can be described thus: in vitro. The conditions noted are these: mouse, microsomes.
Description: Metabolic stability in mouse liver microsomes assessed as parent compound remaining at 1 uM measured after 60 mins in presence of NADPH by LC-MS/MS analysis
Data set [5] deals with Androgen receptor (Homo sapiens, UniProt P10275, F877L). It counts as cell-based, HEK293.
The nature of data set [6]: in vitro. The conditions noted are these: human, microsomes. The source holds these as a separate data set.
Data set [7] in a line: in vitro. The conditions noted are these: human, microsomes. This is another data set of the same source.
Description: Metabolic stability in human liver microsomes assessed as parent compound remaining at 1 uM measured after 60 mins in presence of NADPH by LC-MS/MS analysis
The conditions of data set [8]: mouse, microsomes, 1 h, 1 µM.

Description for CWR22R: Antiproliferative activity against human 22Rv1 cells assessed as inhibition of cell viability incubated for 7 days by Celltiter-Glo assay
Description for LNCaP: Antiproliferative activity against human LNCaP cells incubated for 7 days in presence of R1881 by Celltiter-Glo assay

Broadly, the IC50 is the midpoint of a concentration-inhibition curve. A lower IC50 goes with greater potency in that assay. For the molecule `C[C@](O)(Cn1ccc2cc(F)ccc21)C(=O)Nc1ccc(C#N)c(C(F)(F)F)c1`, the values for the IC50 in “cells” and in the data set with CWR22R were 10.9 µM and 9.98 µM, respectively.

Take `N#Cc1ccc(N2CCC3(CC(NC(=O)c4ccc(C(=O)O)cc4)C3)C2)cc1C(F)(F)F` (centres undefined): the IC50 in the data set with LNCaP was > 50000 nM.

Turning to `CC(O)c1cc(C(=O)NC2CC3(CCN(c4ccc(C#N)c(C(F)(F)F)c4)C3)C2)n[nH]1` (centres undefined), the IC50 with LNCaP is > 100000 nM.

As for `N#Cc1ccc(N2CCC3(CC(NC(=O)c4ccc([N+](=O)[O-])cc4)C3)C2)cc1C(F)(F)F` (centres undefined), in the data set on LNCaP, the IC50 amounted to 3280 nM.

Consider `N#Cc1ccc(N2CCC3(CC(NC(=O)c4ccccc4)C3)C2)cc1C(F)(F)F` (centres undefined), for which the IC50 against Androgen receptor [1] was 43.7 nM.

As for `CNC(=O)c1ccc(C(=O)NC2CC3(CCN(c4ccc(C#N)c(C(F)(F)F)c4)C3)C2)cc1F` (centres undefined), the IC50 against Androgen receptor [1] was 26.3 nM; with LNCaP it was 2260 nM.

In the data set with LNCaP, `N#Cc1ccc(NC(=O)C2CC3(CCN(c4ccc(C#N)c(C(F)(F)F)c4)C3)C2)cc1` (centres undefined) showed an IC50 of 4370 nM.

As for `N#Cc1ccc(N2CCC3(CC(NC(=O)c4ccc(CO)cc4)C3)C2)cc1C(F)(F)F` (centres undefined), the IC50 at Androgen receptor [1] was 37.8 nM; with LNCaP it was 1990 nM.

As a reminder, the half-life is the time in which the quantity being followed falls by half. The term amount remaining denotes the share of the starting amount still present when the sample was taken. Read a high amount remaining as greater stability. What is called microsomal CLint is the rate of metabolic loss divided by the concentration. A higher microsomal CLint goes with faster metabolism. With `N#Cc1ccc(-c2ccc(C(=O)NC3CC4(CCN(c5ccc(C#N)c(C(F)(F)F)c5)C4)C3)cc2)cc1F` (centres undefined), the IC50 is 116 nM against Androgen receptor [2]; > 10 µM against Androgen receptor [5]; 1.19 µM in “cells”; > 50 µM with CWR22R; 190 nM with LNCaP. Besides, the half-life at 1 h, 1 µM in “in vitro [3]” is 154 min. Besides, the figures for the amount remaining at 1 h, 1 µM in the data set “in vitro [4]” and in the data set “in vitro [7]” were 100% and 76.8%, respectively. The molecule further registered a microsomal CLint at 1 h, 1 µM in “in vitro [6]” of 9 µL/min/mg.

Turning to `Cc1ccc(C(=O)NC2CC3(CCN(c4ccc(C#N)c(C(F)(F)F)c4)C3)C2)cn1` (centres undefined), the IC50 on Androgen receptor [1] turned out to be 33.2 nM; in the data set on LNCaP, 2570 nM.

`Cc1ccc(C(=O)NC2CC3(CCN(c4ccc(C#N)c(C(F)(F)F)c4)C3)C2)cc1` (centres undefined) yielded an IC50 with LNCaP of 1260 nM.

`N#Cc1ccc(CN2CC3(CCN(c4ccc(C#N)c(C(F)(F)F)c4)C3)C2)cc1` came in with an IC50 on Androgen receptor [1] of 313 nM.

On to `N#Cc1ccc(-c2ccc(C(=O)NC3CC4(CCN(c5ccc(C#N)c(C(F)(F)F)c5)C4)C3)cc2)cc1` (centres undefined), for which the IC50 on Androgen receptor [2] is 160 nM; in the data set “cells” it was 1.14 µM; in the data set with CWR22R, > 50 µM; against Androgen receptor [1], 29.8 nM; with LNCaP it was 80 nM.

With `COc1ccc(C(=O)NC2CC3(CCN(c4ccc(C#N)c(C(F)(F)F)c4)C3)C2)cc1` (centres undefined), the values for the IC50 against Androgen receptor [1] and with LNCaP were 25.1 nM and 920 nM, respectively.

Turning to `CN1CCN(c2ccc(C(=O)NC3CC4(CCN(c5ccc(C#N)c(C(F)(F)F)c5)C4)C3)cc2)CC1` (centres undefined), the figures for the IC50 on Androgen receptor [1] and with LNCaP were 24.6 nM and 3570 nM, respectively.

For `COC(=O)c1ccc(C(=O)NC2CC3(CCN(c4ccc(C#N)c(C(F)(F)F)c4)C3)C2)cc1` (centres undefined), half-maximal inhibition in the data set on LNCaP (IC50) required 6460 nM.

In data set [8], `C[C@](O)(CN1CCN(c2ccc(-c3ccc(C#N)c(F)c3)cc2)CC1)C(=O)Nc1ccc(C#N)c(C(F)(F)F)c1` displayed a CLH of 282 µL/min. Besides, the half-life at 1 h, 1 µM in “in vitro [3]” was 4.95 min. Moreover, the results for the share remaining at 1 h, 1 µM in “in vitro [4]” and in “in vitro [7]” were 12.2% and 0.74%, respectively. The molecule also showed a microsomal CLint at 1 h, 1 µM in “in vitro [6]” of 252 µL/min/mg. In addition, the figures for the IC50 in “cells” and with CWR22R were 3.29 µM and 2.34 µM, respectively.

In the data set on LNCaP, `N#Cc1ccc(N2CCC3(CC(NC(=O)c4ccc(-c5ccc(OCCO)cc5)cc4)C3)C2)cc1C(F)(F)F` (centres undefined) yielded an IC50 of 650 nM. In other words, the sub-micromolar range.

`N#Cc1ccc(N2CCC3(CC(NC(=O)c4ccc(F)cc4)C3)C2)cc1C(F)(F)F` (centres undefined) gave an IC50 in the data set with LNCaP of 2230 nM. Against the preceding molecule, the IC50 is about 3.4-fold higher.

`CC(O)c1cc(C(=O)N[C@@H](C)Cn2ccc(-c3ccc(C#N)c(Cl)c3)n2)n[nH]1` (some centres undefined) [DAROLUTAMIDE] displayed an IC50 in “cells” of 31.2 µM.
